Where two headings read alike, the source gives them in different places.
Key:
[1] = target: T1, HER2 cytoplasmic domain (Homo sapiens, UniProt P04626); assay: HER2 Kinase Screening Assay; format: biochemical; details: > means no observed 50% inhibition at the indicated test concentration; ~ means approximately 50% inhibition at that concentration
T1 construct: polyhistidine (N)
Description: (§1) A kinase reaction mixture was prepared containing 50 mM Tris-HCl pH=8, 10 mM MgCl2, 0.1 mM Na3PO4, 1 mM DTT, 10 μM ATP, 0.025 μM biotinylated histone-H1 peptide substrate and 0.2 μCuries per well ^33P-γ-ATP (2000-3000 Ci/mmol). 70 μL of the kinase reaction mixture was dispensed into the well of a streptavidin coated FlashPlate™ (Cat. # SMP103, NEN, Boston, Mass.). Then 1 μL of test compound stock in 100% DMSO was added to the wells resulting in a final concentration of 1% DMSO in the reaction with a 100 μL final reaction volume.
(§2) The CDK1:Cyclin-B protein was diluted in 50 mM Tris-HCl pH=8.0, 0.1% BSA at a concentration of 1 ng per μL and 30 μL (30 ng enzyme per test well) was added to each well to initiate the reaction. The reaction was incubated for one hour at 30° C. At the end of the 1 hour incubation, the reaction was terminated by aspirating the mixture from the plate and washing the wells twice with PBS containing 100 mM EDTA. The histone-H1 biotinylated peptide substrate became immobilized on the Flashplate™ and the incorporation of ^33P-γ-ATP was measured by reading the plate on a scintillation counter. Inhibition of the enzymatic activity of CDK1 was measured by observing a reduced amount of ^33P-γ-ATP incorporated into the immobilized peptide.
The HER2 kinase assay was carried out using the CDK kinase assay procedure except that the enzyme was replaced with a HER2 construct containing a polyhistidine tag at the N-terminus followed by 24 additional amino acids and the HER2 cytoplasmic domain beginning at amino acid 676 (Accession #M11730) to the end.

[2] = target: T2, rat VEGF-R2 kinase domain (Rattus norvegicus, UniProt O08775); assay: VEGF-R2 Screening Assay; format: biochemical
T2 construct: amino acids 786-1343 of the rat VEGF-R2 kinase domain; polyhistidine (N)

[3] = tested on: A375 malignant melanoma; assay: Inhibition of in vitro cell proliferation (A375); format: cell-based, human;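 note: cells plated for 24 h, given compound for 24 h, then labelled with 14C-thymidine for another 24 h, with DMSO-only wells as control and counts read by scintillation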
[4] = tested on: HCT-116 colon carcinoma; assay: Inhibition of in vitro cell proliferation (HCT116); format: cell-based, human;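 note: cells exposed to compound for 24 h, then 14C-thymidine added for a further 24 h and its uptake into DNA counted by scintillation, DMSO-only wells as control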
[5] = target: T3, CDK1:Cyclin-B (Homo sapiens, UniProt P06493); assay: CDK1 Screening Assay; format: biochemical
T3 construct: purchased New England Biolabs, Beverly, Mass; 6020; host or cells: insect cells
Description: as §1, §2
The CDK1 used was isolated from insect cells expressing both the human CDK1 catalytic subunit and its positive regulatory subunit cyclin B (New England Biolabs, Beverly, Mass., Cat. #6020).

[6] = tested on: HeLa cervical adenocarcinoma; assay: Inhibition of in vitro cell proliferation (HeLa); format: cell-based, human; details: 14C-thymidine incorporation;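 note: cells exposed to compound for 24 h, then labelled 24 h with methyl 14C-thymidine, with uptake into DNA counted by scintillation against DMSO-only control wells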
[7] = target: T4, murine Aurora-A (Mus musculus, UniProt P97477); assay: Aurora-A Screening Assay; format: biochemical
T4 construct: replaced with the full length protein encoding the murine Aurora-A; made in house; host or cells: sf9 insect cells
T4 sequence (P97477 1-395): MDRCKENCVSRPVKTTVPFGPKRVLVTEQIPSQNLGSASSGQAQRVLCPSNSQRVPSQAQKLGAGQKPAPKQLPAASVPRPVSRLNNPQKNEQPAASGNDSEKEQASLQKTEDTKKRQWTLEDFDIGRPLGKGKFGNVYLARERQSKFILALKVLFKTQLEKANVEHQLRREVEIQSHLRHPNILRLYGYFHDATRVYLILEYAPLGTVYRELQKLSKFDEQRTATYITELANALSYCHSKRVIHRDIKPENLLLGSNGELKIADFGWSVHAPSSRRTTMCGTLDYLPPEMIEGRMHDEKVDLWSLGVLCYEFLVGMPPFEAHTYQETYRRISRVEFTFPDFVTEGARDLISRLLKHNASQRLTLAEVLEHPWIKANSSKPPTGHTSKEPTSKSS
Description: as §1, §2
The Aurora-A kinase assay was carried out using the CDK kinase assay procedure except that the enzyme was replaced with the full length protein encoding the murine Aurora-A (Accession #GB BC014711) expressed and purified from sf9 insect cells.

[8] = > means no observed 50% inhibition at the indicated test concentration, ~ means approximately 50% inhibition at that concentration, read-out: IC50 VEGF-R2
[9] = Homo sapiens, A-375, 14C-thymidine incorporation
[10] = Homo sapiens, HCT-116, 14C-thymidine incorporation

T2 sequence (O08775 786-1343): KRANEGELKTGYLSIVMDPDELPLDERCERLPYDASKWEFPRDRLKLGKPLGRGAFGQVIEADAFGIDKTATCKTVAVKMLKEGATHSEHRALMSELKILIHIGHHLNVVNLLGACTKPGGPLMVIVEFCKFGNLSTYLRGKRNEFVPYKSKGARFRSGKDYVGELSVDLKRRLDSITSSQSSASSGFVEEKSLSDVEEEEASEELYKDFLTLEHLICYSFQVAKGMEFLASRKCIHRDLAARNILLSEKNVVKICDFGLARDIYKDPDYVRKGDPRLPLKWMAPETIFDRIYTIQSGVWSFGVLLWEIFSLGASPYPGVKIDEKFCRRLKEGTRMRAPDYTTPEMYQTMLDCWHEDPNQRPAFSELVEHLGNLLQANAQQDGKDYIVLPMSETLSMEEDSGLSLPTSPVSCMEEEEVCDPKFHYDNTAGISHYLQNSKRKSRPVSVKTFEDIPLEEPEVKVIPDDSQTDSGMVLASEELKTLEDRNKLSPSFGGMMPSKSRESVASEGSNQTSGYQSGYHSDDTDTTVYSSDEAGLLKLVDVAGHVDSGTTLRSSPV
T1 sequence (P04626 676-1255 limits assumed): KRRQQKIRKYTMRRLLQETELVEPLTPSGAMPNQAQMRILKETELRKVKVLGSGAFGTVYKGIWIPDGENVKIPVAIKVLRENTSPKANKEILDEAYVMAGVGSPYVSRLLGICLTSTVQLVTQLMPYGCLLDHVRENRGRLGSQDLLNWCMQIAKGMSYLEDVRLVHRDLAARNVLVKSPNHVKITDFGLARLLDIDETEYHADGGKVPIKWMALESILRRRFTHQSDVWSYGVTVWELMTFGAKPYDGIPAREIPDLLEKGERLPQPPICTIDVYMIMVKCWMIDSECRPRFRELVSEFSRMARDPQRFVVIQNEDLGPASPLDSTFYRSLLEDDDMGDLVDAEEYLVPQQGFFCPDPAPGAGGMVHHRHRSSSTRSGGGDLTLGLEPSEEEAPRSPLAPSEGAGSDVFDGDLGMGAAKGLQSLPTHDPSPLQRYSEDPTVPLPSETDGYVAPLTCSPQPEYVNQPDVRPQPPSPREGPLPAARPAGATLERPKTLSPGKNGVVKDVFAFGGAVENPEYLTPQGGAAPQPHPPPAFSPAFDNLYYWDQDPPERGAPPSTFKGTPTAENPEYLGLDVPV
T3 sequence (P06493 whole entry): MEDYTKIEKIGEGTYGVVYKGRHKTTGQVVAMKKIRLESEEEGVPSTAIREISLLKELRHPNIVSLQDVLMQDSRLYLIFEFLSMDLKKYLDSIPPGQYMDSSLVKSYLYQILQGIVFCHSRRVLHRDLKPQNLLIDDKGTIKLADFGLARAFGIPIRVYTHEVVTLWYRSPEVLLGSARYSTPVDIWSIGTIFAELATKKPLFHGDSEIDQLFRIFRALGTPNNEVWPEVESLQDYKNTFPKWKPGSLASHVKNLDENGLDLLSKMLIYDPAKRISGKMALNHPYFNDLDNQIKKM
T3 sequence (P14635 whole entry partner): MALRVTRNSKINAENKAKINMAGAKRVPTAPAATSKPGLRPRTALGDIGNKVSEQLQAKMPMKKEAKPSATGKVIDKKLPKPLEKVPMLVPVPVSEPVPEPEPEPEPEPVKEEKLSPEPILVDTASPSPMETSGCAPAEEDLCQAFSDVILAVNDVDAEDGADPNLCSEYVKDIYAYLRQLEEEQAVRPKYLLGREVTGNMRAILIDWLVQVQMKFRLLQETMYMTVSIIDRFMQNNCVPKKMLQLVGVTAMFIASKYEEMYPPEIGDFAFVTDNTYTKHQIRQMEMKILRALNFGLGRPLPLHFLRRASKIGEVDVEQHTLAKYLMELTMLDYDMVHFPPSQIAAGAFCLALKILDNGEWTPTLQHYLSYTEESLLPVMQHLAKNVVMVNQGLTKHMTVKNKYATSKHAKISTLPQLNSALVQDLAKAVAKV

IC50 [1] [µM]	IC50 [2, 8] [nM]	IC50 [3, 9] [µM]	IC50 [4, 10] [µM]	IC50 [5] [µM]	IC50 ([6]; Homo sapiens) [µM]	IC50 [7] [µM]	IC50 ([3]; 14C-thymidine incorporation) [µM]	IC50 ([4]; 14C-thymidine incorporation) [µM]	IC50 [6] [µM]	SMILES	IC50 ([2]; IC50 VEGF-R2) [nM]
> 10	30.4	2.59	4.54	28	4.24	> 100	–	–	–	CON=Cc1c(N)ncnc1Oc1ccc2c(c1)cc(C)n2C(=O)NCCCO [Cpd 40, 5-[6-amino-5-(methoxyimino-methyl)-pyrimidin-4-yloxy]-2-methyl-indole-1-carboxylic acid (3-hydroxy-propyl)-amide]	–
13.1	4360	3.22	2.95	> 100	3.99	17.8	–	–	–	CON=Cc1c(N)ncnc1Oc1ccc(O)cc1 [Cpd 67, 4-amino-6-(4-hydroxy-phenoxy)-pyrimidine-5-carbaldehyde O-methyl-oxime]	–
> 10	142	> 10	> 10	> 100	> 10	> 100	–	–	–	CNC(=O)Nc1ccc(Oc2ncnc(N)c2C=NOC)cc1F [Cpd 72, 1-{4-[6-amino-5-(methoxyimino-methyl)-pyrimidin-4-yloxy]-2-fluoro-phenyl}-3-methyl-urea]	–
> 100	1.6	–	–	> 100	–	> 100	> 100	> 100	> 100	CON=Cc1c(N)ncnc1Oc1ccc(NC(=O)Nc2ccc(OC)cc2)c(Cl)c1 [Cpd 62, 1-{4-[6-amino-5-(methoxyimino-methyl)-pyrimidin-4-yloxy]-2-chloro-phenyl}-3-(4-methoxy-phenyl)-urea]	–
> 1	~100000	> 10	> 100	> 100	> 100	> 100	–	–	–	CON=Cc1c(N)ncnc1Oc1ccc(NC(=O)Nc2ccc(F)cc2)c(Br)c1 [Cpd 74, 1-{4-[6-amino-5-(methoxyimino-methyl)-pyrimidin-4-yloxy]-2-bromo-phenyl}-3-(4-fluoro-phenyl)-urea]	–
1.02	48	> 100	> 1	> 100	> 100	> 100	–	–	–	Cc1cc2c(F)c(Oc3ncnc(N)c3C=NOCCCCN3CCOCC3)ccc2[nH]1 [Cpd 26, 4-amino-6-(4-fluoro-2-methyl-1H-indol-5-yloxy)-pyrimidine-5-carbaldehyde O-(4-morpholin-4-yl-butyl)-oxime]	–
> 10	152	3.5	3.77	> 100	4.95	> 100	–	–	–	CON=Cc1c(N)ncnc1Oc1ccc(NC(=O)OC)c(Cl)c1 [Cpd 95, {4-[6-amino-5-(methoxyimino-methyl)-pyrimidin-4-yloxy]-2-chloro-phenyl}-carbamic acid methyl ester]	–
0.282	85	> 100	> 100	> 100	> 100	> 100	–	–	–	Cc1cc2c(F)c(Oc3ncnc(N)c3C=NOCCCCN3CCCCC3)ccc2[nH]1 [Cpd 24, 4-amino-6-(4-fluoro-2-methyl-1H-indol-5-yloxy)-pyrimidine-5-carbaldehyde O-(4-piperidin-1-yl-butyl)-oxime]	–
> 1	3	> 10	> 10	> 100	> 10	> 100	–	–	–	CON=Cc1c(N)ncnc1Oc1ccc(NC(=O)Nc2cccc(Cl)c2)c(Cl)c1 [Cpd 59, 1-{4-[6-amino-5-(methoxyimino-methyl)-pyrimidin-4-yloxy]-2-chloro-phenyl}-3-(3-chloro-phenyl)-urea]	–
> 10	54.2	> 1	> 10	> 100	> 10	> 100	–	–	–	CON=Cc1c(N)ncnc1Oc1ccc2c(c1)cc(C)n2C(=O)NCCCCN1CCCC1 [Cpd 42, 5-[6-amino-5-(methoxyimino-methyl)-pyrimidin-4-yloxy]-2-methyl-indole-1-carboxylic acid (4-pyrrolidin-1-yl-butyl)-amide]	–
> 100	278	2.55	4.86	> 100	4.06	> 10	–	–	–	CNC(=O)Nc1ccc(Oc2ncnc(N)c2C=NOC)c(Cl)c1 [Cpd 70, 1-{4-[6-amino-5-(methoxyimino-methyl)-pyrimidin-4-yloxy]-3-chloro-phenyl}-3-methyl-urea]	–

The remaining lines, values behind:

SMILES	IC50 [1] [µM]	IC50 [2, 8] [nM]	IC50 [3, 9] [µM]	IC50 [4, 10] [µM]	IC50 [5] [µM]	IC50 ([6]; Homo sapiens) [µM]	IC50 [7] [µM]	IC50 ([3]; 14C-thymidine incorporation) [µM]	IC50 ([4]; 14C-thymidine incorporation) [µM]	IC50 [6] [µM]	IC50 ([2]; IC50 VEGF-R2) [nM]
CON=Cc1c(N)ncnc1Oc1ccc(NC(=O)Nc2nc(C)c(C)s2)c(Cl)c1 [Cpd 92, 1-{4-[6-amino-5-(methoxyimino-methyl)-pyrimidin-4-yloxy]-2-chloro-phenyl}-3-(4,5-dimethyl-thiazol-2-yl)-urea]	> 1	2	6.92	16.9	> 100	23.4	> 100	–	–	–	–
CON=Cc1c(N)ncnc1Oc1ccc(NC(=O)Nc2ccccc2C)c(Cl)c1 [Cpd 75, 1-{4-[6-amino-5-(methoxyimino-methyl)-pyrimidin-4-yloxy]-2-chloro-phenyl}-3-o-tolyl-urea]	> 100	7.9	> 100	> 100	> 100	> 100	> 100	–	–	–	–
CON=Cc1c(N)ncnc1Oc1ccc(NC(=O)Nc2ccccc2OC)c(Cl)c1 [Cpd 58, 1-{4-[6-amino-5-(methoxyimino-methyl)-pyrimidin-4-yloxy]-2-chloro-phenyl}-3-(2-methoxy-phenyl)-urea]	1.7	2.5	5.06	8.19	> 100	11.9	> 100	–	–	–	–
CON=Cc1c(N)ncnc1Oc1ccc(NC(=O)NCCCCN2CCCC2)c(Cl)c1 [Cpd 84, 1-{4-[6-amino-5-(methoxyimino-methyl)-pyrimidin-4-yloxy]-2-chloro-phenyl}-3-(4-pyrrolidin-1-yl-butyl)-urea]	> 10	759	> 1	> 10	> 100	> 10	> 10	–	–	–	–
CON=Cc1c(N)ncnc1Oc1ccc(NC(=O)Nc2ccccn2)c(Cl)c1 [Cpd 86, 1-{4-[6-amino-5-(methoxyimino-methyl)-pyrimidin-4-yloxy]-2-chloro-phenyl}-3-pyridin-2-yl-urea]	> 100	34	6.25	> 10	> 100	> 10	> 100	–	–	–	–
CON=Cc1c(N)ncnc1Oc1ccc(NC(=O)Nc2ccccc2Cl)c(Cl)c1 [Cpd 55, 1-{4-[6-amino-5-(methoxyimino-methyl)-pyrimidin-4-yloxy]-2-chloro-phenyl}-3-(2-chloro-phenyl)-urea]	1.82	2.6	> 10	> 10	> 100	> 10	> 10	–	–	–	–
CON=Cc1c(N)ncnc1Oc1ccc(NC(=O)NCCCO)c(Cl)c1 [Cpd 83, 1-{4-[6-amino-5-(methoxyimino-methyl)-pyrimidin-4-yloxy]-2-chloro-phenyl}-3-(3-hydroxy-propyl)-urea]	> 10	–	3.94	3.78	> 100	4.18	> 100	–	–	–	400
